Tests used:
EGFR (human) [1] = target: EGFR (human) (UniProt P00533); details: a431
EGFR (human) [2] = target: EGFR (human) (UniProt P00533); details: a431; remark: listed apart in the source
EGFR (human) [3] = target: EGFR (human) (UniProt P00533); details: A431
EGFR (human) [4] = target: EGFR (human) (UniProt P00533); details: a431; remark: listed apart in the source

EGFR (human), sequence (P00533 whole entry, looked up): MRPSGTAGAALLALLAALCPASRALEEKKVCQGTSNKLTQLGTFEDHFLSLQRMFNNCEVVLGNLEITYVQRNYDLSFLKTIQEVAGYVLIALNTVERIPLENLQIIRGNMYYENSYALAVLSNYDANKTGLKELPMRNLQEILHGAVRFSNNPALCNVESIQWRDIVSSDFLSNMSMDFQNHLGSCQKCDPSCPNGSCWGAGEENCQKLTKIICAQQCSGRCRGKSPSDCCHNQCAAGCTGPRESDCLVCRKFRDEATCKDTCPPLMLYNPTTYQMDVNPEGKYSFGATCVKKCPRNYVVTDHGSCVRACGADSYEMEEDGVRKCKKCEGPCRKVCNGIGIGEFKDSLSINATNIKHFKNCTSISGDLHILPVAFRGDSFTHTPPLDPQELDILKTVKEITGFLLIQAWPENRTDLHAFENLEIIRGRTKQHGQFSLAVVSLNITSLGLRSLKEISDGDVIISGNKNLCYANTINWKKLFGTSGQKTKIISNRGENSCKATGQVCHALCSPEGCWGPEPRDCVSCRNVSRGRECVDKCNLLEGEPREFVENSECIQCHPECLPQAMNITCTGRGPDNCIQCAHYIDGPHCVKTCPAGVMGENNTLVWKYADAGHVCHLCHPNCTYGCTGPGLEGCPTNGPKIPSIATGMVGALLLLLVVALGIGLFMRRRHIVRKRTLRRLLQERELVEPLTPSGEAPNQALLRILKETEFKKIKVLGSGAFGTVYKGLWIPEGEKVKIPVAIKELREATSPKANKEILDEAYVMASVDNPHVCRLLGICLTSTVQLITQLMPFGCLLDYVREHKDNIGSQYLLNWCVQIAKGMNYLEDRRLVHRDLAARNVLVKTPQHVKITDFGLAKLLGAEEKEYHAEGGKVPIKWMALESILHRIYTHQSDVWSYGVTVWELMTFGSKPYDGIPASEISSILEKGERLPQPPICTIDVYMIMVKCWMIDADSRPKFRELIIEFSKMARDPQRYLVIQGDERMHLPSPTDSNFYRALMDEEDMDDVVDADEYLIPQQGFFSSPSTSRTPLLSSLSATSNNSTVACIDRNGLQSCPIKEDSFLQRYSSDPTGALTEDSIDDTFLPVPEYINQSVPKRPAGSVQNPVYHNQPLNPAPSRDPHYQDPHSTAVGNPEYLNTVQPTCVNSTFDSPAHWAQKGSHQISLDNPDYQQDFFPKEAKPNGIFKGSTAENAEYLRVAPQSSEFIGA

| SMILES | IC50 (EGFR (human) [1]) | IC50 (EGFR (human) [2]) | inhibition (EGFR (human) [3]) | IC50 (EGFR (human) [3]) | inhibition (EGFR (human) [4]) | IC50 (EGFR (human) [4]) |
| --- | --- | --- | --- | --- | --- | --- |
| COc1cc2ncnc(N3CCN(c4ccc(F)cc4)CC3)c2cc1OC | > 100 µM | > 100 µM | 0 | – | – | – |
| COc1cc2ncnc(N3CCN(c4ccccc4F)CC3)c2cc1OC | > 100 µM | > 100 µM | 0 | – | – | – |
| COc1cc2ncnc(N3CCN(c4ccc([N+](=O)[O-])cc4)CC3)c2cc1OC | 40.8 µM | > 100 µM | – | 0.0168 µM | – | – |
| COc1cc2ncnc(N3CCN(c4ccccn4)CC3)c2cc1OC | 63.5 µM | 67.4 µM | 0 | – | – | – |
| COc1cc2ncnc(N3CCS(=O)(=O)CC3)c2cc1OC | > 100 µM | > 100 µM | 0 | – | – | – |
| COc1cc2nc(Nc3cccc(Br)c3)nc(Nc3cccc(Br)c3)c2cc1OC | 13.2 µM | 25.3 µM | 0 | – | – | – |
| COc1cc2ncnc(N3CCN(c4ccccc4C)CC3)c2cc1OC | > 100 µM | > 100 µM | 0 | – | – | – |
| COc1ccc(CCNc2ncnc3cc(OC)c(OC)cc23)cc1OC | 26.5 µM | 30 µM | 0 | – | – | – |
| COc1ccc(CCCNc2ncnc3cc(OC)c(OC)cc23)cc1OC | 22.8 µM | 3 µM | 0 | – | – | – |
| COc1cccc(N2CCN(c3ncnc4cc(OC)c(OC)cc34)CC2)c1 | 38.7 µM | 58.8 µM | 0 | – | – | – |
| COc1cc2ncnc(N3CCN(Cc4ccccc4)CC3)c2cc1OC | 21.8 µM | 34.6 µM | – | 17.9 µM | – | – |
| COc1cc2ncnc(N(C)c3cccc(Br)c3)c2cc1OC | – | – | 0 | – | 0 | – |
| COc1cc2nc3nccn3c(Nc3cccc(Br)c3)c2cc1OC | 6.8 µM | 6.6 µM | 0 | – | – | – |
| COc1cc2ncnc(N3CCN(c4ccccc4)CC3)c2cc1OC | 30.8 µM | 33.6 µM | 0 | – | – | – |
| COc1ccc(CCCCNc2ncnc3cc(OC)c(OC)cc23)cc1OC | > 100 µM | > 100 µM | 0 | – | – | – |
| COc1cc2nc(Nc3cccc(Br)c3)n3nnnc3c2cc1OC | > 100 µM | > 100 µM | 0 | – | – | – |

| SMILES | IC50 (EGFR (human) [1]) | IC50 (EGFR (human) [2]) | inhibition (EGFR (human) [3]) | IC50 (EGFR (human) [3]) | inhibition (EGFR (human) [4]) | IC50 (EGFR (human) [4]) |
| --- | --- | --- | --- | --- | --- | --- |
| COc1ccc(Nc2ncnc3cc(OC)c(OC)cc23)cc1OC | > 100 µM | > 100 µM | – | 9.4 µM | – | – |
| COc1ccc(N2CCN(c3ncnc4cc(OC)c(OC)cc34)CC2)cc1 | > 100 µM | > 100 µM | 0 | – | – | – |
| COc1cc2ncnc(N3CCN(c4ccccc4Cl)CC3)c2cc1OC | 13.7 µM | 14.6 µM | 0 | – | – | – |
| COc1cccc(Nc2ncnc3cc(OC)c(OC)cc23)c1 | 11.7 µM | 77 µM | – | 1.6 µM | – | 0.706 µM |
| COc1cc2c(Nc3cccc(Br)c3)nc3nnnn3c2cc1OC | > 100 µM | > 100 µM | 0 | – | – | – |
| COc1cc2ncnc(N3CCN(c4cccc(Cl)c4)CC3)c2cc1OC | > 100 µM | > 100 µM | 0 | – | – | – |
| COc1cc2ncnc(N3CCN(c4cccc(C(F)(F)F)c4)CC3)c2cc1OC | 4.7 µM | 3.9 µM | 0 | – | – | – |
| COc1ccc(CNc2ncnc3cc(OC)c(OC)cc23)cc1OC | 27.1 µM | 30 µM | – | 31.6 µM | – | – |
| COc1cc2ncnc(N3CCNCC3)c2cc1OC | > 100 µM | > 100 µM | 0 | – | – | – |
| COc1cc2ncnc(N3CCN(c4ccccc4OC)CC3)c2cc1OC | 1.4 µM | 2.1 µM | 0 | – | – | – |
| COc1cc2ncnc(N3CCSCC3)c2cc1OC | > 100 µM | > 100 µM | 0 | – | – | – |
| COc1cc2ncnc(Nc3ccccc3[N+](=O)[O-])c2cc1OC | 4.4 µM | > 100 µM | – | 0.0437 µM | – | 0.563 µM |
| COc1cc2nc(N3CCOCC3)nc(N3CCOCC3)c2cc1OC | > 100 µM | > 100 µM | 0 | – | – | – |
| COc1cc2ncnc(N3CCN(c4ccc(Cl)cc4)CC3)c2cc1OC | 24.7 µM | 85 µM | – | 0.0047 µM | – | – |
| COc1cc2ncnc(N3CCOCC3)c2cc1OC | > 100 µM | > 100 µM | 0 | – | – | – |
| COc1cc2ncnc(NCCNc3ccccc3)c2cc1OC | > 100 µM | > 100 µM | – | 31.6 µM | – | – |
